Experimental data as given in patent US20220315616A1, “MANGANESE CHELATE ISOMERS” (GE Healthcare AS, priority 2019, published 2022).

Experiments:
[1] = Dissociation of manganese from the chelate in human serum (SEC with ICP-MS); assay type: in vitro ADME; details: for Percent dechelation in human serum: 37° C., protein bound manganese
Procedure: (§1) Stability of Mn Chelate-5 stereoisomers in human serum was assessed in vitro by monitoring transfer of Mn from the chelate to blood proteins by a method employing size exclusion chromatography combined with online detection of manganese containing species by ICP-MS.
The following method was used for measurement of dissociation of manganese from the manganese chelate in human serum.
To human serum obtained from clotted blood (Sigma-Aldrich, 1900 μL) was added an aqueous solution of the manganese chelate (2 mM, 100 μL). The mixture was incubated at 37° C. At specific time points aliquots of 200 μL of test sample were mixed with saline (400 μL) and analysed by size exclusion chromatography (metal-free HPLC equipped with a column with separation range 5000-500000 Dalton) combined with online detection of manganese containing species by ICP-SF-MS. Percent dechelation was measured as area percent of the high molecular weight (protein) fraction. At regular intervals EDTA solution was run through the system to ensure low levels of background metal ions. Human serum was incubated with Mn(II)acetate and injected to identify the position of Mn-binding components in the high molecular weight region of the chromatogram.
Four different stereoisomers of Mn Chelate-5 (RR, SS, SR and RS) were analysed in this assay.

[2] = r1 and r2 relaxivities (Brüker mq60 relaxometer); assay type: physicochemical; details: in human serum at 60 MHz and 37° C.
Source text: General method for measurement of r1 and r2 relaxivities. […] […] Linear fits (R^2>0.99 in all cases) of 1/T1 or 1/T2 as a function of Mn concentration gave r1 or r2 values respectively.

[3] = Mn-54 biodistribution study in rats; assay type: in vivo, Sprague-Dawley rats; details: rat, 7 d post injection; for % ID ± standard deviation, Brain: 0.62 mmol Mn/kg with ~30 μCi 54Mn labeled chelate, n = 4
Procedure: In vivo stability of the different isomer pools was assessed via a ^54Mn radioactive biodistribution as Mn released in vivo is known to be retained in brain, bone and liver. The amount of Mn released in vivo was assessed for Mn Chelate-5 synthesized without stereochemical control, a 1:1 mix of (R,R)-Mn Chelate-5 and (S,S)-Mn Chelate 5 isomers, and (R,S)-Mn Chelate-5 isomer pool B using ^54Mn labeled material added to non-radiolabeled material. […] Rats were dosed with 0.62 mmol Mn Chelate-5/kg containing ˜30 μCi ^54Mn Chelate-5. The animals were sacrificed at 7 d post injection, organs of interest were collected, and the ^54Mn remaining in the organs was measured using a gamma counter. FIG. 4 is a plot showing % ID (injected dose)/organ 7 d post injection of a 0.62 mmol Mn Chelate-5/kg dose containing ˜[…] ^54Mn Chelate-5. Bars containing hashed lines represent % ID/organ at or below the limit of detection for the study. The results of statistical comparison of the % ID for each organ are summarized as p-values using either a one-way ANOVA Games-Howell comparison or a 2-way t-test as appropriate are shown for each organ.
Method for preparation of Mn-54 labeled chelate for biodistribution studies. To a 3 mL glass vial fitted with a magnetic stir bar was added the manganese containing chelate (1 mg) and 1.0 M ammonium formate, pH=4 (0.5 mL). ^54MnCl2 in 1.0 M HCl (˜500 μCi) was then added and the resulting solution was heated at 40° C. for 16 h. The resulting solution was purified via preparative HPLC to remove unchelated Mn. The radioactive fraction was collected and evaporated to dryness in vacuo. The radioactive residue was taken up in water containing non-radioactive Mn chelate (0.310 M) such that ˜30 μCi of radioactivity was formulated in a dose of 0.620 mmol Mn/kg with an injection volume of 2 mL/kg.
General method for Mn-54 biodistribution studies. […] 7 days post injection, the animals were sacrificed by CO2 immersion and organs and tissues of interest were removed and assayed for radioactivity using a Wizard 2480 gamma counter (Table 2).

[4] = Trans-metalation with Zn (HPLC, % Mn chelate remaining); assay type: physicochemical; details: 2 mM chelate, 200 mM ZnCl2 in 15 mM ammonium formate, pH=4, 40° C.
Procedure: as §1
Method for assessing trans-metalation with Zn. Mn chelates were dissolved in aqueous solutions containing 200 mM ZnCl2 and 15 mM ammonium formate at either pH=4 to give a Mn chelate concentration of approx. 2 mM. The resulting solutions were incubated at 40° C. with mixing and aliquots were periodically analyzed by HPLC. The percent Mn containing chelate remaining in the solution was measured by integration at 265 nm.

## CN1CCN2Cc3cccc(n3)CN(CC1)[C@@H](CCC(=O)NC[C@H](O)[C@@H](O)[C@H](O)[C@H](O)CO)C(=O)[O][Mn][O]C(=O)[C@@H]2CCC(=O)NC[C@H](O)[C@@H](O)[C@H](O)[C@H](O)CO [(S,S)-Mn Chelate-5]
[1]; incubation time 3 h
  Percent dechelation in human serum: 0.3%
[1]; incubation time 24 h
  Percent dechelation in human serum: 1.6%
[1]; incubation time 49 h
  Percent dechelation in human serum: 2.4%

## CN1CCN2Cc3cccc(n3)CN(CC1)C(CCC(=O)NC[C@H](O)[C@@H](O)[C@H](O)[C@H](O)CO)C(=O)[O][Mn][O]C(=O)C2CCC(=O)NC[C@H](O)[C@@H](O)[C@H](O)[C@H](O)CO (stereo partly shown) [Mn Chelate-5]
[2]
  r1 relaxivity: 6.0 mM⁻¹ s⁻¹
[3]
  % ID ± standard deviation, Brain: 0.005 ± 0.0004% ID

## CN1CCN2Cc3cccc(n3)CN(CC1)[C@H](CCC(=O)NC[C@H](O)[C@@H](O)[C@H](O)[C@H](O)CO)C(=O)[O][Mn][O]C(=O)[C@H]2CCC(=O)NC[C@H](O)[C@@H](O)[C@H](O)[C@H](O)CO [(R,R)-Mn Chelate-5]
[1]; incubation time 3 h
  Percent dechelation in human serum: 0.6%
[1]; incubation time 24 h
  Percent dechelation in human serum: 2.7%
[1]; incubation time 49 h
  Percent dechelation in human serum: 3.6%

## CN1CCN2Cc3cccc(n3)CN(CC1)[C@@H](CCC(=O)NC[C@H](O)[C@@H](O)[C@H](O)[C@H](O)CO)C(=O)[O][Mn][O]C(=O)[C@H]2CCC(=O)NC[C@H](O)[C@@H](O)[C@H](O)[C@H](O)CO [(R,S)-Mn Chelate-5]
[2]
  r1 relaxivity: 6.0 mM⁻¹ s⁻¹
[4]
  Rate of transmetallation with Zn (among Mn Chelate-5 stereoisomers): significantly slower rate of transmetallation
[3]
  Mn remaining in vivo in brain and bone vs 1:1 (S,S)/(R,R) mixture or Mn Chelate-5 without stereochemical control: significantly less Mn remaining in vivo
  % ID ± standard deviation, Brain: 0.002 ± 0.0004% ID
[1]; 2 days total incubation at 37 °C
  Stability in human serum (percent dechelation curves, comparison of isomers): most stable
[1]; incubation time 3 h
  Percent dechelation in human serum: 0.04%
[1]; incubation time 24 h
  Percent dechelation in human serum: 0.11%
[1]; incubation time 49 h
  Percent dechelation in human serum: 0.16%
